Legend:
[1] = tested on: tau (Tau5, phospho S199, T231) in BiFC-tau Venus HEK293 cells; test: Immunoblot of total tau and phospho-tau in HEK293 BiFC-tau cells; assay type: cell-based, human
Description: Cells were collected and lysed in modified radioimmunoprecipitation assay(RIPA) buffer 50 mM Tris-HCl, pH 7.8, […], 1% NP-40, 0.5% deoxycholate, 5 mM NaF, 2 mM Na3VO4, and 1× Protease Inhibitor Cocktail(Roche). The concentration of total protein in each lysate was then determined using a whole cell assay and Pierce BCA Protein Assay Kit (ThermoFisher Scientific). Centrifugation was performed at 200 g for 10 minutes at 4° C. for measurement. Equal amounts of each lysate were fractionated by PAGE, transferred to a PVDF membrane (Bio-Rad), and blocked with 2% bovine serum albumin (BSA, MP Biomedicals) in Tris Buffered Saline supplemented with Tween20 (TBST, Sigma) for 1 hour at room temperature.
Membranes were probed with protein-specific antibodies overnight at 4° C. The following day, membranes were washed three times in TBST and incubated with 2% BSA in TBST for 1 hour at room temperature with anti-rabbit or anti-mouse horseradish peroxidase secondary antibodies (Cell Signaling Technology). After washing, membranes were exposed to detection reagents (GE Healthcare) and quantified via chemiluminescence (Bio-Rad). […]

[2] = target: T1, DNAJC3 (Homo sapiens, UniProt Q13217); test: TS-FITGE thermal stability shift; assay type: binding; set-up: endogenous in cells; host or cells: HEK293 BiFC-tau cells (TS-FITGE, CETSA); conditions: 10 μM, 200 nM thapsigargin, 3 hours, HEK293 BiFC-tau cells
T1 sequence (Q13217 32-504): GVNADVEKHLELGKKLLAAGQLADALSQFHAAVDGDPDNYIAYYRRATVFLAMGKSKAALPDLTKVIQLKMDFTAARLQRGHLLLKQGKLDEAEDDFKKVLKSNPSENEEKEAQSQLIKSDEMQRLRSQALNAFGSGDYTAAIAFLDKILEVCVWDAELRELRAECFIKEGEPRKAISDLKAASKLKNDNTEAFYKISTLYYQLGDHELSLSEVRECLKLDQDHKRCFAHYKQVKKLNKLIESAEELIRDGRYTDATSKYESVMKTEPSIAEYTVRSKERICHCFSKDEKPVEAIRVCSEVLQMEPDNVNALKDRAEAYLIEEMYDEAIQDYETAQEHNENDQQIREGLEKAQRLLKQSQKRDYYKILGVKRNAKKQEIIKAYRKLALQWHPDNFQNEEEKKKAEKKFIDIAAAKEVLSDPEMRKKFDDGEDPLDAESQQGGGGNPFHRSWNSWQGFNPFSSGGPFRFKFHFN
Description: HEK293 BiFC-tau cells were treated with dimethylsulfoxide (DMSO, 0.1%) and a compound according to the present invention (10 μM) in the presence of thapsigargin (200 nM) for 3 hours. The cell suspension was heated at the indicated temperature range for 3 minutes and then at 25° C. for 3 minutes. The heated cells were washed with PBS and resuspended in lysis buffer A (0.4% NP-40 in PBS supplemented with protease inhibitor cocktail). For cell lysis, cell suspensions were freeze-thawed in liquid nitrogen three times. The cell lysate was washed by centrifugation at 20000 g, 4° C. for 20 minutes. Protein concentration of the soluble fraction was quantified by Pierce BCA protein assay. After precipitating 50 μg of protein with cold acetone, it was centrifuged at […] and 4° C. for 7 minutes. The residual pellet was resuspended in 10 μl of conjugation buffer (30 mM Tris-HCl at pH 8.6, 30 mM thiourea, 7 M urea and 4% w/v CHAPS). 1 μl of 0.4 mM Cy2-N-hydroxysuccinimide(Cy2-NHS) (for DMSO-treated group), Cy3-NHS (for SB1607-treated group) or Cy5-NHS (for SB1617-treated group) was mixed with the protein and incubated at 4° C. for 45 minutes. […] Protein spot locations and fluorescence signals were analyzed with DeCyder 2D software ver. […]

CN(Cc1ccc(Cl)cc1)c1ncnc2c1[C@@H]1OC[C@H](CN2)N1S(=O)(=O)c1ccc([N+](=O)[O-])cc1 [Compound 117]
total tau level ([1]; 10 μM SB1617, 200 nM TG, pre-treated with 20 μg/mL cycloheximide, 8 hours): did not cause a significant change in tau level
effect on reduction of total tau level ([1]; SB1617 and TG with autophagy inhibitors 3-methyladenine and bafilomycin A1): is reduced, but does not completely diminish
total tau (Tau5) and phospho-tau (S199, T231) levels ([1]; with 80 nM thapsigargin for 20 hours): decreased all tau levels
thermal stability of protein (TS-FITGE) [2]: thermal stability of the protein was improved
